“Also recorded” adds a separate entry of the source.
Assays:
R4A mouse autoantibody = experiment: competitive ELISA, R4A autoantibody binding to its antigens; conditions: in vitro; for inhibition of R4A binding to DWEYS peptide: antigen DWEYS peptide, FIG. 1B; for inhibition of R4A binding to dsDNA: antigen dsDNA, FIG. 1C
Text: (§1) FIG. 1A-1E. Compound 12W inhibits antigen recognition by systemic lupus erythematosus (SLE) autoantibodies. A) Structures of Compound 12W and WEY peptide (i.e., a tripeptide identical to the pentapeptide DWEYS (SEQ ID NO:1) less the carboxyl serine residue and the amino terminal aspartate of the pentapeptide). B) R4A mouse autoantibody binding to DWEYS (SEQ ID NO:1) peptide. C) R4A mouse autoantibody binding to DNA. D) G11 human autoantibody binding to DWEYS (SEQ ID NO:1) peptide. E) G11 human autoantibody binding to DNA. In B)-E), antibody binding in the presence of DWEYS peptide is shown in the right plot in each figure. Compound 12W inhibits binding as shown by the left plot in each figure.

G11 human autoantibody = experiment: competitive ELISA, G11 autoantibody binding to its antigens
Text: as §1

anti-BSA antibody = experiment: binding of an anti-BSA antibody to BSA (specificity control); conditions: data not shown
R4A antibody [1] = experiment: R4A binding to mouse kidney glomeruli in situ; conditions: for inhibition of R4A binding to mouse kidney glomeruli: antibody pre-incubated, presence and absence of DNAse, FIG. 2A
Text: FIG. 2A-2B. Compound 12W inhibits SLE autoantibody binding to glomeruli in situ. A) Data with R4A. B) Data with G11. From left to right: control, +DNAse, +Compound 12W, +DNAse+Compound 12W.
The kidney is a major target organ in SLE, with renal disease occurring in approximately 50% of patients. Glomerular deposition of circulating autoantibodies leads to a cascade of inflammatory events including renal infiltration by activated immune cells, activation of dendritic cells through Toll-like receptors and pro-inflammatory cytokine production (Bagavant and Fu 2009), which can culminate in end-stage renal disease. […] The R4A and G11 antibodies, as well as other pathogenic lupus antibodies, bind to both DNA and non-DNA antigens present in kidney glomeruli ex vivo. […] To test if Compound 12W could block the binding of the R4A antibody to its renal antigens in situ, the R4A antibody was incubated with mouse kidney glomeruli in the presence and absence of Compound 12W and its binding measured by detection with fluorescently-conjugated secondary antibodies.

R4A or G11 antibodies = experiment: neurotoxicity of intracerebrally injected lupus autoantibodies, TUNEL staining; assay type: in vivo, mice
Description: FIG. 3. Compound 12W inhibits neurotoxicity of autoantibodies. The lupus autoantibodies caused significant neuronal apoptosis, as indicated by positive TUNEL staining (right panels).
Both R4A and G11 cause excitotoxic death of neurons in the mouse hippocampus (Zhang et al. 2009). Therefore, the ability of Compound 12W to negate the neurotoxicity of these autoantibodies was assayed. To test the neuroprotective potential of Compound 12W, mice were injected intracerebrally with R4A or G11 antibodies in the presence and absence of Compound 12W. As shown previously, the lupus autoantibodies caused significant neuronal apoptosis, as indicated by positive TUNEL staining (FIG. 3, upper and lower right panels). […] The neuroprotective dose of Compound 12W was 2 logs less than that previously used to achieve similar neuroprotection with the DWEYS (SEQ ID NO:1) peptide (Huerta et al. 2006).

[2] = system: autoantibodies present in serum from multiple lupus patients; experiment: competitive ELISA, lupus patient sera binding to DWEYS peptide; parameters: species or system human; conditions: sera pre-incubated, FIG. 4
Description: FIG. 4. Compound 12W inhibits autoantibodies present in human SLE sera. Inhibition of human SLE sera binding to antigens in vitro.
(§2) The studies above tested the ability of Compound 12W to neutralize monoclonal antibodies derived from mouse or human lupus sera. It was next tested whether Compound 12W would be similarly effective in inhibiting the polyclonal autoreactivity present in lupus patient sera (FIG. 4). Sera from lupus patients were pre-incubated with the Compound 12W and binding to DWEYS (SEQ ID NO:1) and dsDNA was then assayed in a competitive ELISA. […] The ability of Compound 12W to inhibit binding of lupus sera to mouse kidney glomeruli was also assayed.

human lupus sera = experiment: binding of lupus sera to mouse kidney glomeruli; conditions: data not shown
Description: as §2

[3] = system: anti-dsDNA/NMDAR G11/R4A/human lupus antibody; experiment: glomerular deposition of anti-dsDNA/NMDAR antibody in vivo; parameters: species or system SCID mice
Description: In order to test if Compound 12W was also effective at protecting the kidney, a major target organ in lupus, from antibody deposition, the anti-dsDNA/NMDAR G11/R4A/human lupus antibody was administered to SCID mice in the absence and presence of Compound 12W and glomerular deposition was measured.

R4A antibody [4] = conditions: literature; cited from earlier work
[5] = system: anti-dsDNA/NMDAR G11/R4A/human lupus antibody; conditions: mice; Gaynor et al. 1997, Huerta et al. 2006; cited from earlier work

Compound	inhibition of R4A binding to DWEYS peptide (R4A mouse autoantibody)	inhibition of R4A binding to dsDNA (R4A mouse autoantibody)	inhibition of G11 binding to DNA (G11 human autoantibody; antigen DNA, FIG. 1E)	inhibition of G11 binding to DWEYS peptide (G11 human autoantibody; antigen DWEYS peptide, FIG. 1D)	inhibition of binding of an anti-BSA antibody to BSA (anti-BSA antibody)	inhibition of R4A binding to mouse kidney glomeruli (R4A antibody [1])	dose dependence of inhibition of R4A binding to glomeruli (R4A antibody [1]; data not shown)	neuroprotective dose relative to that previously used with the DWEYS peptide (R4A or G11 antibodies; less than DWEYS peptide dose (Huerta et al. 2006))	neuronal apoptosis caused by lupus autoantibodies (TUNEL staining) (R4A or G11 antibodies; mice, intracerebral co-administration with R4A or G11, FIG. 3)	inhibition of lupus patient sera binding to DWEYS peptide [2]	inhibition of binding of human lupus sera to mouse kidney glomeruli (human lupus sera)	autoantibody binding to renal tissue in vivo [3]	glomerular binding by R4A blocked (Gaynor et al 1997) (R4A antibody [4])	renal (and brain) deposition of anti-DNA/NMDAR antibodies in vivo, literature [5]
CC(C)(C)NCC1CC2CCCCC2CN1CC(O)C(Cc1ccccc1)NCC(CCN)NCC1Nc2ccccc2CC1O (centres unmarked) [Compound 12W, 2-((4-amino-1-(4-(3-((tert-butylamino)methyl)octahydroisoquinolin-2(1H)-yl)-3-hydroxy-1-phenylbutan-2-ylamino)butan-2-ylamino)methyl)-1,2,3,4-tetrahydroquinolin-3-ol]	able to inhibit R4A binding to these same antigens at nM concentrations	able to inhibit R4A binding to these same antigens at nM concentrations	inhibited G11 binding at similar concentrations to its effect on R4A binding	inhibited G11 binding at similar concentrations to its effect on R4A binding	failed to inhibit binding	Dramatically less binding was observed to both DNA and non-DNA antigens	dependent on the dose	2 logs	blocked the neurotoxic effects of the lupus antibodies	able to inhibit binding	blocked binding of human lupus sera to kidney antigens	blocked autoantibody binding to renal tissue both ex vivo and in vivo		
DWEYS peptide: pentapeptide DWEYS (SEQ ID NO:1), antigen/mimetope recognised by anti-dsDNA/NMDAR lupus autoantibodies (listed as Homo sapiens) [reference compound]	inhibitable by DWEYS (SEQ ID NO:1) peptide at mM concentrations	inhibitable by DWEYS (SEQ ID NO:1) peptide at mM concentrations				could be mimicked by pre-incubation of the R4A antibody with the DWEYS (SEQ ID NO:1) peptide at mM concentrations							can be blocked	blocks renal and brain deposition of anti-DNA/NMDAR antibodies in mice; also recorded: able to block binding of the anti-dsDNA antibodies to kidneys in vivo
